Numbers after ± are expanded uncertainties.
Tests used:
[1] = refractive index (Na D-line) (dimensionless); details: 298.15 K; 101.33 kPa; Liquid; Standard Abbe refractometry
[2] = 298.15 K; 101.33 kPa; Liquid
[3] = excess molar enthalpy (molar enthalpy of mixing); xn = mol fraction of the nth substance listed; details: 298.15 K, 101 kPa, Liquid
[4] = xn = mol fraction of the nth substance listed; details: 298.15 K, 101 kPa, Liquid

COC=O [methyl methanoate]
Details	mass density [kg/m3]	refractive index
[1]	–	1.3415 ± 0.0008
[2]	966.83 ± 0.7	–

CCCCC(=O)OC [methyl pentanoate]
Details	mass density [kg/m3]	refractive index
[1]	–	1.395 ± 0.0008
[2]	884.59 ± 1	–

COC(C)=O [methyl ethanoate]
Details	mass density [kg/m3]	refractive index
[1]	–	1.3585 ± 0.0008
[2]	926.73 ± 0.84	–

CCC(=O)OC [methyl propanoate]
Details	mass density [kg/m3]	refractive index
[1]	–	1.374 ± 0.0008
[2]	910.18 ± 0.9	–

CCCC(=O)OC [methyl butanoate]
Details	mass density [kg/m3]	refractive index
[1]	–	1.386 ± 0.0008
[2]	892.42 ± 0.97	–

BrCCCCCCBr [1,6-dibromohexane] + CCCCC(=O)OC
Details	excess molar enthalpy [kcal/mol]	mass density [kg/m3]
[3], x2 = 0.0734	0.0108 ± 0.00055	–
[3], x2 = 0.1653	0.0181 ± 0.000645	–
[3], x2 = 0.264	0.0216 ± 0.000717	–
[3], x2 = 0.3507	0.0227 ± 0.000717	–
[3], x2 = 0.418	0.0213 ± 0.000693	–
[3], x2 = 0.4743	0.0187 ± 0.000669	–
[3], x2 = 0.5227	0.0154 ± 0.000621	–
[3], x2 = 0.5866	0.0104 ± 0.000526	–
[3], x2 = 0.6386	0.00703 ± 0.000478	–
[3], x2 = 0.716	0.00251 ± 0.000406	–
[3], x2 = 0.7966	4.78e-05 ± 0.000382	–
[3], x2 = 0.879	-0.000789 ± 0.000382	–
[3], x2 = 0.9483	-0.00012 ± 0.000382	–
[4], x2 = 0.0703	–	1557.19 ± 4.9
[4], x2 = 0.1394	–	1513.24 ± 4.5
[4], x2 = 0.2633	–	1432.4 ± 3.7
[4], x2 = 0.3222	–	1392.97 ± 3.4
[4], x2 = 0.3842	–	1350.7 ± 3
[4], x2 = 0.4472	–	1306.98 ± 2.7
[4], x2 = 0.5076	–	1264.24 ± 2.3
[4], x2 = 0.5698	–	1219.49 ± 2
[4], x2 = 0.6817	–	1136.77 ± 1.5
[4], x2 = 0.7372	–	1094.69 ± 1.3
[4], x2 = 0.8445	–	1011.22 ± 0.82
[4], x2 = 0.8993	–	967.47 ± 0.84
[4], x2 = 0.945	–	930.4 ± 0.93

BrCCBr [1,2-dibromoethane] + COC=O
Details	excess molar enthalpy [kcal/mol]	mass density [kg/m3]
[3], x2 = 0.0726	0.0561 ± 0.00127	–
[3], x2 = 0.1528	0.112 ± 0.00213	–
[3], x2 = 0.2426	0.156 ± 0.00287	–
[3], x2 = 0.3298	0.179 ± 0.00311	–
[3], x2 = 0.4034	0.19 ± 0.00335	–
[3], x2 = 0.4719	0.194 ± 0.00335	–
[3], x2 = 0.5315	0.192 ± 0.00335	–
[3], x2 = 0.5856	0.185 ± 0.00311	–
[3], x2 = 0.6347	0.175 ± 0.00311	–
[3], x2 = 0.6786	0.163 ± 0.00287	–
[3], x2 = 0.7171	0.15 ± 0.00263	–
[3], x2 = 0.7759	0.127 ± 0.00234	–
[3], x2 = 0.8639	0.0849 ± 0.0017	–
[3], x2 = 0.9405	0.041 ± 0.00103	–
[4], x2 = 0.0941	–	2084.41 ± 8.8
[4], x2 = 0.1513	–	2030.58 ± 8.2
[4], x2 = 0.2019	–	1980.75 ± 7.6
[4], x2 = 0.251	–	1931.96 ± 7.1
[4], x2 = 0.2967	–	1881.94 ± 6.6
[4], x2 = 0.3904	–	1784.54 ± 5.7
[4], x2 = 0.4985	–	1662.03 ± 4.6
[4], x2 = 0.5973	–	1543.27 ± 3.8
[4], x2 = 0.7057	–	1404.1 ± 2.9
[4], x2 = 0.7483	–	1346.2 ± 2.5
[4], x2 = 0.7967	–	1278.68 ± 2.1
[4], x2 = 0.8478	–	1205.01 ± 1.8
[4], x2 = 0.8808	–	1155.98 ± 1.5
[4], x2 = 0.9402	–	1064.28 ± 1.1
